Laboratory results: patent US20060270643A1, “Hyfroxyflutamide induced pathways related to androgen receptor negative prostate cancer cells” (priority 2002, published 2006)
Values joined by “and” are separate entries in the source; they are usually repeats but may differ in a detail not shown here. Equal entries are not always repeated. “Also recorded” adds a separate entry of the source. Where two headings read alike, the source gives them in different places.

Key:
[1] = tested on: p44/42 MAP kinase (ERK1 and 2); assay: Immunoblot of phosphorylated p44/42 MAP kinase in DU145 cells; assay type: cell-based, human
Procedure: 7. […] (A) DU145 cells were grown in 100 mm dishes and serum-starved for 24 hours. The cells were lysed on ice. Equal amounts of cell lysate were analyzed by 12% SDS-PAGE and subsequent immunoblotted with anti-phospho ERK1/2 and anti-ERK1/2 antibodies. (B) Different cell lines, at 70 to 80% confluence, were lysed and immunoblotted with anti-AR polyclonal antibody, NH27. (C) DU145 cells were pre-incubated with MEK1/2 inhibitor U0126, or U0124 before HF, EGF, and ethanol treatment. Cells were lysed and immunoblotted with anti-phospho ERK1/2 and anti-ERK1/2 antibodies. (D) CWR2 and (E) PC3-AR cells were grown in 100 mm dishes and serum-starved for 24 hours. The cells were treated with HF, EGF or ethanol vehicle for 15 mins and immunoblotted with anti-phospho-ERK1/2 and anti-ERK1/2 antibodies. […] MMTV-ARE-Luc reporter plasmid was cotransfected with or without pSG5AR into DU145 cells. After 18 hours, cells were treated with 1 nM DHT, 1 μM HF or both for another 18 hours, and then harvested. Cell lysates were collected and assayed for the luciferase activity.
9. […] After 15 min treatment, cells were lysed and immunoblotted with anti-phospho ERK1/2 and antiERK1/2 antibodies. […] EGFR was immunoprecipitated from the cell lysates, and their phosphotyrosine level was determined by anti-phosphotyrosine antibody. All the results were visualized using enhanced chemiluminescence.
198. This assay uses a polyclonal antibody specific against the activated p44/42 MAP kinases (Cell Signaling Technology, Beverly, Mass.), which detects p44 and p42 MAP kinase (ERK1 and 2) only when catalytically activated by dual phosphorylation at Thr202 and Tyr204. DU145 cells were seeded at 1×10^5 cells per 100 mm plate and allowed to attach overnight and then the media were replaced with serum-free DMEM media for 24 hours. The cells were pre-treated with MAP kinase inhibitors, EGFR antibodies, or cycloheximide for 1 hour and followed by HF, EGF, or vehicle treatment. Cells were washed twice with PBS, harvested at indicated times, and lyzed with RIPA buffer for 30 min on ice. The protein concentrations were determined by Bradford assay, and equal amount of protein was resolved by SDS-PAGE. Gels were transferred, immunoblotted with p44/42 MAP kinase antibody (1/1000), and then incubated with secondary antibody. Proteins were visualized by the enhanced chemiluminescence system (NEN™ Life Science Products, Boston, Mass.). P44/42 MAP kinase (total ERK1/2) was blotted as a control.

phospho-ERK1/2 = assay: Immunocytochemical staining of phospho-ERK1/2 in patients' prostate tumor biopsies; assay type: in vivo, human; settings: recurrent tumors of four patients progressing while receiving flutamide (androgen ablation therapy); one value per patient
Procedure: 6. […] Prostate tumor tissue sections from the same patient with either the pre- (A and C) and post-androgen ablation plus flutamide therapy (B and D), were immunohistochemically stained for phosphorylated ERK1/2. Sections were counterstained with Mayer Hematoxylin Blue (A and B). Original magnification ×400.
196. Immunocytochemical staining were performed on formalin-fixed, paraffin-embedded tissue sections using antibodies ERK1,and ERK2 (SC-94, and SC-154, 1/400 dilution), and phospho-ERK1/2 (SC-7383, 1/50 dilution) all from Santa Cruz (Santa Cruz, Calif.). Sections were cut at 4 to 5 microns and deparaffinized according to established procedures and quenched with 3% hydrogen peroxide for 6 min. Antigen unmasking with heat retrieval in citrate buffer/pH 6.0 was accomplished by placing slides in a microwave (1500 watts) pressure cooker for 30 minutes. Slides were rinsed and stained for 45 minutes with primary antibody, and then incubated for 20 min with secondary antibody and streptavidin-HRP. Slides were developed with AEC+, rinsed and counterstained with Mayer Hematoxylin Blue in 0.3% ammonia water.
201. […] Each slide was examined and scored the number of the cells stained positive for phosph-ERK1/2 under the 100× high power field. […]

AR [2] = assay: AR phosphorylation in COS-1 cells transfected with wtAR or mtAR; assay type: cell-based
Procedure: (§1) 14. […] Anti-pSer, anti-phosphoserine antibody. […] Total AR protein was blotted using an anti-AR antibody (AR), and AR phosphorylation was detected using an anti-phospho-AR (S210) antibody (pAR). […] The cells were then harvested for immunoprecipitation with anti-AR antibody and Western blot analysis. NH27, anti-AR antibody, anti-pSer, anti-phosphoserine antibody.
(§2) 219. The imrnunoprecipitation and Western blotting were performed as previously described (Lin, H. K., et al. (2001) Proc Natl Acad Sci USA 98, 7200-7205). The cell extracts (1 mg) were immunoprecipitated with the indicated antibody. The immunocomplexes were subjected to 8% SDS-PAGE and immunoblotted with the indicated antibody.

AR [3] = assay: AR phosphorylation in LNCaP cells (immunoprecipitation / Western blot); assay type: cell-based, human
Procedure: as §1, §2

[4] = tested on: association between Ras and Raf; assay: Ras-Raf immunoprecipitation assay in DU145 cells; assay type: cell-based, human; settings: lysates of treated DU145 cells; 1 μM HF, 10 ng/ml EGF, 1 μM 9-cis retinoic acid
Procedure: 8. […] (A) DU145 cells were treated with ethanol (lane 1), 10 ng/ml EGF (lane 2), 1 μM 9-cis retinoic acid (lane 3), and 1 μM HF (lane 4) after 24 hour serum starvation. Cells were lysed and 300 μg of total protein were immunoprecipitated with anti-Ras antibody, pulled-down by a protein A/G agarose beads, and detected with an anti-Raf antibody. (B) DU145 cells were transfected with pCDNA3.1 or pCDNA3.1-Ras N17 as indicated. After 24 hours serum starvation, the cells were treated with different ligands for 20 min, and then harvested. Western blots were performed with antibodies against phosphoERK1/2 and ERK1/2. The density of phospho-ERK1/2 shown as Optical Density (OD) were determined by the Versa Doc Imaging System (Bio-Rad) and quantified by Quantity One software.
200. Serum-stared and treated DU145 cells were lysed with RIPA buffer for 30 min on ice. Lysates were then centrifuiged at 12,000 g for 10 min at 4° C. and protein concentrations were determined by the Bradford assay. 500 μg of cell lysates were incubated for 4 hours with either anti-Ras or anti-EGFR antibody (1/100, Santa Cruz Biotechnology) to the protein-antibody mixture and then added in 20 μl of protein A/G plus-agarose (Santa Cruz Biotechnology) for another 4 hours incubation with constant rotation. The immunoprecipitates were washed four times with cold PBS, resolved by SDS-PAGE, and immunoblotted by anti-Raf-1 antibody, or anti-phospho-tyrosine monoclonal antibody (Oncogene Research, Calbiochem, La Jolla, Calif.). The results were visualized by chemiluminescence.

DU145 cells = assay: Cell proliferation assay (hemacytometer counting); assay type: cell-based, human
Procedure: 10. […] (A) DU145 cells were seeded in 10% FBS DMEM medium and 24 hours later cells were changed to serum free medium. 48 hours later changed the medium to 0.5% FBS medium and treated with ethanol, HF, or EGF. Every 24 hours, the cells were counted by hemacytometer. […]. […] (B) DU145 cells were seeded and transfected with anti-sense oligonucleotide of Ras (IRIS 2503: 5′-[…]-3′), Raf (IIUS: 5132:5′-[…]-3′) and HIV (5′-[…]-3′) (Chen, G., Oh, S., Monia B. P., and Stacey, D. W., J. Biol. Chem., 271: 28259-28265, 1996, Monia, B. P., et al., Proc. Natl. Acad. Sci. USA, 93: 15481-15484, 1996.) by SuperFect (Qiagen). 24 hour after serum starvation, we changed the cells to medium containing 0.5% FBS, and treated the cells as described in A. Cells were counted by hemacytometer every 24 hours. The cell lysate were blotted with anti-H-Ras and Raf antibodies and β-actin was blotted for loading control.
199. DU145 cells were seeded at 2×10^4/ml on 35 mm plates and allowed to attach overnight. Cells were kept in serum-free DMEM medium for 24 hours, and then media were replaced with DMEM-0.5% FBS and treated as indicated. Cells were trypsinized and counted with a hemacytometer at different times after treatments. For the antisense oligonuleotide experiments, cells were incubated with a fixed ratio of oligonucleotide versus SuperFect (2.5 μl of SuperFect per 100 nM oligo) for 4 hours and then the oligo-containing medium was replaced with DMEM-0.5% FBS. Cells were trypsinized and counted by hemacytometer at indicated times.

[5] = tested on: cyclin D1 promoter (−1745D1-Luc); assay: Cyclin D1 promoter luciferase reporter assay in DU145 cells; assay type: cell-based, human; settings: 10^−6 M HF or 30 ng/ml EGF
Procedure: (§3) 11. […] (A) DU145 cells were treated with HF (1 μM), or EGF (10 ng/ml), or ethanol vehicle for 12 hours after the serum starvation. Cells were lysed and blotted with anti-cyclin D1 antibody. (B) DU145 cells were serum starved for 24 hours and then co-transfected DN Ras or DN Raf together with […] Luc reporter with SuperFect (Qiagen). After 4 hours, the medium was changed to normal medium (10% serum) for 18 hours and then changed to serum starvation condition for another 24 hours and then treated with HF, EGF, or ethanol vehicle control. Cells were lysed for luciferase activity analysis.
197. DU145 cells were obtained from American Type Culture Collection and cultured in Dubecco's modified Eagles's medium (DMEM) supplemented with 10% fetal bovine serum (FBS). Cells (1×10^5) were seeded in 35 mm plates and transfected with the SuperFect transfection reagent (Qiagen, Chatworth, Calif.). After 4 hours the media were changed to serum-free DMEM media for 24 hours. Thereafter, the cells were treated with HF, EGF, and vehicle for 18 hours and then lysed for luciferase assay. Luciferase activity was normalized for taansfection efficiency using pRL-TK as an internal control. Luciferase assays were performed using dual-luciferase reporter system (Promega, Madison, Wis.).

cyclin D1 = assay: Western blot of cyclin D1 and cell cycle related gene products in DU145 cells; assay type: cell-based, human
Procedure: as §3

N#CC(=C(/N)Sc1ccccc1N)/C(C#N)=C(\N)Sc1ccccc1N [U0126]
block of HF-mediated MAP kinase activation [1]: can block HF-mediated MAP kinase activation

CC(C)C(=O)Nc1ccc([N+](=O)[O-])c(C(F)(F)F)c1 [Flutamide]
cells stained positive for phospho-ERK1/2 (phospho-ERK1/2): 30% and 41% and 52% and 45%

CS/C(N)=C(C#N)/C(C#N)=C(\N)SC [U0124]
block of HF-mediated MAP kinase activation ([1]; DU145 cells pre-incubated with inhibitor before HF treatment): not

IGF-1: insulin-like growth factor-1
phosphorylation of mutant AR (mtAR) (S210A/S790A) (AR [2]; IGF-1): did not induce phosphorylation | wild-type (wtAR) phosphorylation (AR [2]; IGF-1 for 4 hours): induced wild-type (wtAR) phosphorylation | AR phosphorylation (AR [3]; LNCaP cells (P38), IGF-1 for 4 hours): induced AR phosphorylation | AR phosphorylation at S210 (AR [3]; LNCaP cells treated with IGF-1, site-specific anti-phosphoserine AR antibody): detected

C[C@@H]1C[C@@H]([C@H](O)CC2CC(=O)NC(=O)C2)C(=O)[C@@H](C)C1 [cycloheximide]
block of MAP kinase activation mediated by HF or EGF ([1]; Ten ng/ml cycloheximide, 1 hour pre-treatment): failed to block MAP kinase activation | MAP kinase activation with ethanol added to cycloheximide treatment ([1]; no HF or EGF (lane 7)): slight increment

CC1=C(/C=C/C(C)=C\C=C\C(C)=C\C(=O)O)C(C)(C)CCC1 [9 cis-retinoic acid, 9-cis retinoic acid]
Raf detected in the Ras immunocomplex [4]: not

COc1cc2ncnc(Nc3cccc(Cl)c3)c2cc1OC [AG1478]
levels of phospho-ERK1/2 induced by either HF or EGF ([1]; preincubation with 100 nM for 1 hour): decreased levels of phospho-ERK1/2

EGF: epidermal growth factor
cell proliferation (DU145 cells; cells maintained in 10% FBS medium (data not shown)): no significant stimulation of cell proliferation | cell proliferation (DU145 cells; low serum (0.5% FBS) after serum starvation): stimulate the DU 145 cell growth significant; also recorded: can promote cell proliferation | Raf detected in the Ras immunocomplex [4]: detected | induction of cyclin D1 promoter (−1745D1-Luc) activity [5]: about 2 fold | cyclin D1 expression (cyclin D1; HF (1 μM) or EGF (10 ng/ml) for 12 hours after serum starvation): induced | other cell cycle related gene products (p27, p21, Ki67, PCNA) (cyclin D1; after HF- or EGF-treatment): no significant change
